The values below come from US4683239A, “3-diphenyl substituted octahydroindolizine analgesic compounds” (McNeilab, Inc., priority 1986, dated 1987).

Structures can show the parent of a compound that is named as a salt.

The subject of the first assay is mice. As to the kind of experiment: Mouse Acetylcholine-Bromide-Induced Abdominal Constriction Assay. The assay is classed as in vivo. To be noted: Mus musculus, po, 0.5 h, oral (p.o.), 30 min before i.p. 5.5 mg/kg acetylcholine bromide, dose which inhibits writhing by 50%. As for the experimental part: […]., 32: 295-310, 1968, with minor modifications was used to assess analgesic potency of the compounds of formula (I). The test drugs or appropriate vehicle were administered orally (p.o.) and 30 minutes later the animals received an intraperitoneal (i.p.) injection of 5.5 mg/kg acetylcholine bromide (Matheson, Coleman and Bell, East Rutherford, NJ). The mice were then placed in groups of four into glass bell jars and observed for a ten minute observation period for the occurrence of a writhe (defined as a wave of constriction and elongation passing caudally along the abdominal wall, accompanied by a twisting of the trunk and followed by extension of the hind limbs). The percent inhibition of writhing (equated to % analgesia) was calculated as follows: The % Inhibition of writhing, i.e., % analgesia is equal to the difference between the No. of control animals writhing and the No. of drug-treated animals writhing times 100 divided by the No. of control animals writhing. At least 20 animals were used for control and in each of the drug treated groups. Four doses were used to determine each dose response curve and ED50 (that dose which inhibits writhing by 50%). The ED50 values and their 95% fiducial limits were determined by a computer assisted probit analysis.
`CC(=O)Nc1cccc(/C=C\c2ccc([C@H]3CC[C@H]4CCCCN43)cc2)c1` (relative stereo) [Example 4] gave an ED50 of 6.9 mg/kg.

Molecule `CC(=O)Nc1cccc(C#Cc2ccc([C@@H]3CC[C@@H]4CCCCN43)cc2)c1` (relative stereo) [Example 2, N-[3-[[4-(trans-Octahydro-3-indolizinyl)phenyl]ethynyl]phenyl]acetamide] yielded an ED50 of 17.6 mg/kg.

The molecule `Cl.c1ccc(COc2ccc([C@@H]3CC[C@@H]4CCCCN43)cc2)cc1` (relative stereo) [Example 3b, trans-Octahydro-3-[4-(phenylmethoxy)phenyl]indolizine Hydrochloride] displayed an ED50 of 16.8 mg/kg.

In the case of `CC(=O)Nc1ccc(Oc2ccc([C@H]3CC[C@H]4CCCCN43)cc2)cc1` (relative stereo) [Example 12f, N-[4-[4-trans-Octahydro-3-indolizinyl)phenoxy]phenylacetamide], the ED50 is ≤ 5 mg/kg.

Molecule `Cc1ccc(Sc2ccc(C3CCC4CCCCN43)cc2)cc1.Cl` (stereo not drawn) [Example 7, 3-[4-[(4-Methylphenyl)thio]phenyl]octahydroindolizine Hydrochloride] gave an ED50 of 20 to 30 mg/kg.

On to `Cl.c1ccc(CCc2ccc([C@@H]3CC[C@@H]4CCCCN43)cc2)cc1` (relative stereo) [Example 6, trans-Octahydro-3-[4-(2-phenylethyl)phenyl]indolizine Hydrochloride], for which the ED50 turned out to be 6.9 mg/kg.

Staying with this assay, now noted: oral (p.o.), @ 30 mg/kg, 30 min before i.p. 5.5 mg/kg acetylcholine bromide, printed in ED50 column.
Take `CC(=O)Nc1ccc(Sc2ccc([C@@H]3CC[C@@H]4CCCCN43)cc2)c(Cl)c1.Cl` (relative stereo) [Example 13e]: the “% Inhibition of writhing (% analgesia)” value is 46%.

On to `CC(=O)Nc1cccc(Sc2ccc([C@H]3CC[C@H]4CCCCN43)cc2)c1` (relative stereo) [Example 11, N-[3-[[4-trans-Octahydro-3-indolizinyl)phenyl]thio]phenyl]acetamide Hydrochloride Hydrate], for which the “% Inhibition of writhing (% analgesia)” value turned out to be 73%.

Turning to `CC(=O)Nc1cccc(CCc2ccc([C@@H]3CC[C@@H]4CCCCN43)cc2)c1` (relative stereo) [Example 9, N-[3-[2-[4-(trans-Octahydro-3-indolizinyl)phenyl]ethyl]phenyl]acetamide], the “% Inhibition of writhing (% analgesia)” value was 86%.
